Data from patent US20040191842A1, “Chemopreventive and therapeutic aspects of polyphenolic compositions and assays” (Medical College of Georgia Research Institute, Inc., priority 2002, published 2004).

Tests used:
MCF7 cells [1] = experiment: MTT assay (mitochondrial SDH activity), MCF7 cells; format: cell-based, human; conditions: 50 μM EGCG
Protocol: MTT (3-(4,5-dimethylthiazol-2-yl)-2,5-diphenyl tetrazolium bromide) assay. This method detects the activity of mitochondrial succinate dehydrogenase (SDH). In a 96-well plate, 1.5×10^4 cells were seeded in each well. After variety of treatments, 100 μl of 2% MTT was added to each well and the plate was incubated at 37° C. for 30 minutes. 100 μl of 0.2 M Tris (pH 7.7) with 4% formalin was added to each well. After incubation at room temperature for 5 minutes, liquid was removed and the wells were allowed to dry. Each well was rinsed with 200 μl water followed by addition of 100 μl DMSO (6.35% 0.1 N NaOH in DMSO) to each well. The coloration was measured by a Thermo MAX microplate reader (Molecular Devices Corp. Sunnyvale, Calif. using wavelengths of 562 nm. Experiments were repeated three times with triplicate samples for each experiment.

caspase 3 = experiment: Caspase 3 activity assay, caspase 3 null MCF7 cells; format: cell-based, human; conditions: increasing EGCG or 0.2 mg/ml GTPPs, 24 h
Protocol: Caspase 3 activity assay. The Caspase 3 Apoptosis Detection Kit was purchased from Santa Cruz Biotech. Inc. In a 24 well tissue culture plate, 10^5 cells/well of cells in triplicates were plated. […] To each well, 100 μl of 2×reaction buffer was added with […]. Finally, 5 μl of DEVD-AFC substrate was added to each well containing cell lysates. The reaction mixtures were incubated for 1 hour at 37° C. The caspase 3 activity in each well was measured using a fluorescence microplate reader set for 405 nm excitation and 505 nm emission.

[2] = system: salivary acenar cells (AC) and duct cells (DC), HSG and OSC tumor cells; experiment: Protection of salivary gland cells from CDDP and UVC (SDH, BrdU); conditions: pretreatment of EGCG
Description: Human immortalized salivary acenar cells (AC) and duct cells (DC), along with human salivary gland tumor cells (HSG, a radiation-resistant cell line) and oral squamous carcinoma cells (OSC) were either treated by CDDP or irradiated by UVC with or without the presence of EGCG, followed by determination of the mitochondrial succinate dehydrogenase (SDH) activity, a measurement of mitochondrial damage and BrdU incorporation determination.

MCF7 cells [3] = experiment: Morphological analysis, MCF7 cells; format: cell-based, human; conditions: EGCG, 48 hours, vs 24 hour control
Description: Cell lines and cell culture. The normal human keratinocytes (NHEK CC-2507) were purchased from Cambrex (East Rutherford, N.J.) and maintained in KGM-2 medium (Cambrex). The OSC2 cell line was previously described (Osaki et al., Eur J Cancer B Oral Oncol 1994; 30 B:296-301). The breast carcinoma MCF7 cell line was purchased from American Type Culture Collection. The MCF7(C) caspase+cell line “7-3-28 ” was established and tested as previously described (Janicke et al., J Biol Chem 1998; 273:9357-60, Blanc et al., Cancer Res 2000; 60:4386-90). These tumor cells were maintained in 45% Dulbecco's Modified Eagle's Medium (DMEM), 45% Ham's F12 medium and 10% fetal calf serum, 100 I.U/ml penicillin, 100 μg/ml streptomycin and 5 μg/ml hydrocortisone. All cell cultures were maintained in a 37° C. incubator with 5% CO2. Light microscopic photographs were taken with a SPOT RT digital camera system (Diagnostic Instruments) linked to a Nikon Phase Contrast-2 microscope at an original magnification of 200×.

[4] = system: normal human mammary epithelial cells (HMEC); experiment: Morphology of mammary epithelial cells; format: cell-based; conditions: 50 μM EGCG
Protocol: Cell lines and cell culture. The normal human keratinocytes (NHEK CC-2507) were purchased from Cambrex (East Rutherford, N.J.) and maintained in KGM-2 medium (Cambrex). The OSC2 cell line was previously described in Example 1. The OSC2 subclones were established by retroviral transfection of the parental OSC2 cell line. These clones were maintained in 45% Dulbecco's Modified Eagle's Medium (DMEM), 45% Ham's F12 medium and 10% fetal calf serum, 100 I.U/ml penicillin, 100 μg/ml streptomycin and 5 μg/ml hydrocortisone. The normal human mammary epithelial cells (HMEC) were maintained in MEGM medium (Cambrex). All cell cultures were maintained in a 37° C. incubator with 5% CO2. Light photographs were taken with a SPOT RT digital camera system (Diagnostic Instruments, Sterling Heights, Mich.) linked to a Nikon Phase Contrast-2 microscope at an original magnification of 400×. Fluorescent photomicrographs were taken with a SPOT color digital camera system using the ZEISS Axiovert 10. Fluorescence was generated by a ZEISS AttoArc 2 source with an original magnification of 400×. Experiments were repeated three times.

OSC2 cells = experiment: BrdU incorporation assay, OSC2 (OSC-2) cells; format: cell-based, human
Protocol: DNA synthesis analysis using BrdU incorporation method. The BrdU cell proliferation kit was purchased from Oncogene Research Products, Boston, Mass. Cells were culture in 96 well plates with 10^4 cells/well. After EGCG and GTPPs treatments, cells were labeled by BrdU, reacted with BrdU antibody and the color reaction was carried out according to the protocol provided by the manufacturer. The coloration was measure by a Thermo MAX microplate reader using wavelengths 450 nm-562 nm.
(§1) DNA synthesis assay. DNA synthesis was analyzed by a BrdU Cell Proliferation Assay Kit (Oncogene Research Products, Boston, Mass.). […] After the treatment, cells were labeled with BrdU for 2 hours at 37° C. and reacted with anti-BrdU antibody. Unbound antibody in each well was removed by rinsing, and horseradish peroxidase-conjugated goat anti-mouse antibody was added to each well. The color reaction was visualized according to the protocol provided by the manufacturer.
as §1, with “cell proliferation assay kit” for “Cell Proliferation Assay Kit”, “anti-mouse IgG” for “anti-mouse”, “reaction to visualize the secondary antibody” for “reaction”, “carried out” for “visualized”

caspase 14 and p21 = experiment: Caspase 14 and p21 expression in OSC2 cells; format: cell-based, human; conditions: EGCG
Protocol: To identify additional factors those suppress EGCG -induced apoptosis and facilitate cell differentiation in NHEK, exponentially growing NHEK (Cambrex, Baltimore, Md.) were exposed to 100 μM EGCG for 0, 2, 6 and 24 hours, prior to total RNA isolation using the Qiagen RNeasy mini kit (Valencia, Calif.), which was followed by RT-PCR labeling and hybridization with the Human Apoptosis Macroarray membrane (Sigma-Genosys, The Woodlands, Tex.). Total cell lysates also were collected following a variety of EGCG treatments. The protein levels for caspase 14 and p21 were determined by immuno-blotting using antibodies specific for caspase 14 and p21 (Santa Cruz Biotechnology, Santa Cruz, Calif.).
Normal human epidermal keratinocytes (NHEK; Cambrex), and oral squamous cell carcinoma (OSC2) cells, originally from gingival tissue, were compared. Exponentially growing cells were exposed to 50 or 100 μM EGCG for 0 hours, 2 hours, 6 hours or 24 hours. Cells were harvested for total RNA, which was examined by apoptosis macroarrays (Sigma Genosys), followed by phosphorimagery and data analysis (GeneSpring). Protein production of expressed genes was confirmed by Western blotting of whole cell lysates.

Question: Which “mitochondrial SDH activities” value (MCF7 cells [1]) does the source give for `O=C(O[C@@H]1Cc2c(O)cc(O)cc2O[C@@H]1c1cc(O)c(O)c(O)c1)c1cc(O)c(O)c(O)c1` [EGCG, (−)-epigallocatechin-3-gallate] here?
Answer: significantly decreased

Question: What about the “caspase 3 activity” value (caspase 3) of the same molecule?
Answer: did not show caspase 3 activity

Question: What about the “protection from CDDP and UVC cytotoxicity” value [2] of the same molecule?
Answer: significantly protected the normal salivary gland cells from CDDP and UVC, but not the tumor cells

Question: And the cell density (MCF7 cells [3])?
Answer: increased cell density was observed

Question: What about the morphology ([4]; 24 hours) of the same molecule?
Answer: little change in morphology

Question: What about the cell death ([4]; 48 hours) of the same molecule?
Answer: Significant cell death was observed

Question: What about the “BrdU incorporation, of control levels” value (OSC2 cells; 200 μM EGCG) of the same molecule?
Answer: approximately 75%

Question: And the “reduction of BrdU incorporation” value (OSC2 cells; 200 μM EGCG, 24-hour period)?
Answer: approximately 25%

Question: And the BrdU incorporation (OSC2 cells; EGCG concentrations reached 50 μM, or GTPPs)?
Answer: ceased BrdU incorporation

Question: And the “caspase 14 and p21 levels” value (caspase 14 and p21; identical conditions to NHEK)?
Answer: failed to show increased caspase 14 or decreased p21

Question: And the “p21 mRNA elevated” value (caspase 14 and p21; within 2 hours)?
Answer: 3 fold
